In US7473682B2, “Angiogenic peptides and uses thereof” (Ramot at Tel Aviv University Ltd., priority 2003, dated 2009):
“Also recorded” adds a separate entry of the source.

Experiments:
mouse ischemic hind limb [1] = test: Mouse ischemic hind limb model, blood perfusion (Laser Doppler Imager); format: in vivo; conditions: 14 and 19 days following peptide injection; for The blood perfusion ratio (in percentages) of the ischemic vs. control limbs, Mean: 10 μg
Experimental: (§1) Mouse ischemic hind limb model—Ischemia was created in the mouse left hind limb by ligation of the femoral artery. The right hind limb served as control. A day after the operation each of the peptides was injected into one site close to the ligation and one site distal to the ligation. Each mouse was treated with each of the peptides in a total amount of 10 μg.
Blood perfusion in ischemic mice—The percent of blood perfusion was measured using a Laser Doppler Imager (PeriMed, Sweden) at 14 and 19 days after peptides injections. The average percent perfusion of each limb was computed and expressed as the ischemic (left)/control (right) blood perfusion ratio.

KDR = test: Real time PCR gene expression in MVECs, KDR; format: cell-based; parameters: key: increased (+); non-increased (−); conditions: 1 ng/ml peptide
Experimental: (§2) Real Time PCR—MVECs from passage 3 were incubated for 24 hours in EBM-MV supplement-free medium (starving media). Following starvation, 1 ng/ml of synthetic peptides LT, QF, SP, TR, YR, and VL and 10 ng/ml of VEGF were added to the plates. Following 1.5 or 6 hours of incubation, total RNA was extracted using TRIsol reagent (Invitrogen Life Technologies, Carlsbad Calif., USA) and 0.8 μg of the extracted RNA was used as a template for reverse transcription (Invitrogen) using random primers (SuperScript III First-Strand Synthesis System for RT-PCR (hvitrogen, Carlsbad Calif., USA) according to the manufacturer's instructions. Resulting cDNAs were subjected to real time PCR amplification using the ABI prism 7000 Sequence Detection System (Applied Biosystems, Foster City, Calif., USA). Oligonucleotide primers were designed using Primer Express Software (Applied Biosystems, Foster City, Calif., USA) according the translated region of VEGF-A (Accession No:NM_003376), VEGF-C (Accession No:NM_005429), KDR (Accession No:NM_002253), FLT-1 (Accession No:NM_002019), HIF-α (Accession No:HSU22431), and GAPDH (Accession No:NM_002046) and are listed in Table 6, hereinbelow. Briefly, a reaction mixture of 20 μl consisting of DDW, oligonucleotide primers (500 nM), cDNA (3 μl), and SYBR Green PCR master kit (Applied Biosystems, Foster City, Calif., USA) was subjected to an amplification program of 15 seconds at 95° C., and 60 seconds at 60° C. for 40 cycles. Results were analyzed using the Sequence Detector Software Version 1 (Applied Biosystenis).
(§3) Peptides effect on gene expression in MVECs—The effect of the synthetic peptides on the expression in MVECs of selected genes (VEGF-A, VEGF-C, KDR, FLT-1 and HIF-1α) related to the VEGF pathway (a major pathway that participated in angiogenic process) was tested. Synthetic peptides were added at 1 ng/ml for 1.5 and 6 hours. After incubation with peptide, RNA was extracted from MVECs and Real Time PCR was performed. Gene expression was calculated as peptide/control (cells without peptide treatment) ratio.

mouse ischemic hind limb [2] = test: Mouse ischemic hind limb model, physiological observations (ladder climbing); format: in vivo; parameters: key: 1 = walk and climb ... 4 = walk with difficulty, cannot climb; conditions: mean score of 10 mice, 10 μg; for Physiological score (ability to climb a ladder) Day 1: 1 = walk and climb ... 4 = walk with difficulties and cannot climb, day 1 post operation; for Physiological score (ability to climb a ladder) Day 4 / Physiological score (ability to climb a ladder) Day 7 / Physiological score (ability to climb a ladder) Day 10: scale 1-4; for Physiological score (ability to climb a ladder) Day 4: day 4 post operation; for Physiological score (ability to climb a ladder) Day 7: day 7 post operation; for Physiological score (ability to climb a ladder) Day 10: day 10 post operation
Experimental: as §1
Physiological observations—Ischemic mice were evaluated for their ability to climb a ladder on day 1, 4, 7, and 10-post operation. The scoring system was as follows: 1—walk and climb; 2—walk and climb with some difficulty, 3—walk and cannot climb the ladder; 4—walk with difficulties and cannot climb the ladder.

HUVECs (ECs) = test: Tube formation assay, ECs (HUVECs); format: cell-based, human; conditions: for EC tube formation compared to untreated cells: normoxic conditions, 10 ng/ml, matrigel
Experimental: Tube formation assay—ECs from passage 3 or MVECs from passage 4 were harvested with trypsin and incubated for 24 hours in SFM. Twenty-four—well plates were pre-coated with 250 μl of Cultrex Basement Membrane Extract with reduced growth factors (R&D Systems, Minneapolis, Minn., USA). Five hundred microliters of medium containing 10^6 cells were transferred to the coated wells. Synthetic peptides, FGF, YR, QF, or VL were added to ECs, and VEGF, YR, QF, or VL were added to MVECs at 10 ng/ml. Plates were incubated for 24 hours at 37° C. in the presence of 5% CO2. HUVECs and MVECs were photographed under a light microscope at 20 hours and 8 hours, respectively.
Tube formation assay after and under hypoxia treatment—Tube formation assay was performed as described in Example 3, hereinabove, except that the cells were divided to 3 groups: control cells, cells after exposure to hypoxia conditions, and cells on matrigel basement that form tubes under hypoxia treatment.

[3] = test system: ears of nude mice and Balb/C mice; test: In vivo angiogenesis in a mouse-ear model; conditions: for Number of blood vessels in the ears of injected mice (photographs): 10 μg peptide, subcutaneous injection into ear; for Number of blood vessels: 10 μg/ear, 5 days after inoculation; for Peptide/PBS = ratio between the No. of blood vessels in the peptide-injected ear and in the PBS-injected ear: mouse ears, contralateral ear PBS
Experimental: In Wivo angiogenesis in a mouse-ear model—Ear angiogenesis studies were a modification of an approach described previously (Pettersson, 2000). […] Contralateral ears were injected only with PBS. […] Two days after peptide inoculation, angiogenic effect of peptides could be observed.
Histological sections—Histological sections of the mouse-ears injected with the angiogenic peptides were performed by fixing tissues in 4% buffered formalin. Sections were embedded in paraffin blocks sectioned in 4 μm thick layers and stained with hematoxolin-eosin.

MVECs = test: MVEC migration assay with synthetic peptides; format: cell-based; conditions: 5 hours; for Increase in MVECs migration, peptides as chemoattractants: 10 ng/ml; for MVECs migration, direct activation by peptides: 1 ng/ml
Experimental: MVEC migration was evaluated as described above except that MVECs from passage 3 were incubated in EBM-MV SFM. […] The presence of migratory cells was detected using the fluorescent ELISA reader at 480/520 nm (Fluostar BMG Lab Teck) as described in Example 2, hereinabove. […]

VEGF-A = test: Real time PCR gene expression in MVECs, VEGF-A; format: cell-based; parameters: key: increased (+); non-increased (−); conditions: 1 ng/ml peptide
Experimental: as §2, §3

FLT-1 = test: Real time PCR gene expression in MVECs, FLT-1; format: cell-based; parameters: key: increased (+); non-increased (−); conditions: 1 ng/ml peptide
Experimental: as §2, §3

Row | Sequence | The blood perfusion ratio (in percentages) of the ischemic vs. control limbs, Mean (mouse ischemic hind limb [1]) | KDR Expression after 1.5 hours (KDR) | Physiological score (ability to climb a ladder) Day 1 (mouse ischemic hind limb [2]) | Physiological score (ability to climb a ladder) Day 4 (mouse ischemic hind limb [2]) | Physiological score (ability to climb a ladder) Day 7 (mouse ischemic hind limb [2]) | Physiological score (ability to climb a ladder) Day 10 (mouse ischemic hind limb [2]) | EC tube formation compared to untreated cells (HUVECs (ECs)) | Number of blood vessels in the ears of injected mice (photographs) [3] | Number of blood vessels [3] | Peptide/PBS = ratio between the No. of blood vessels in the peptide-injected ear and in the PBS-injected ear [3] | Increase in MVECs migration, peptides as chemoattractants (MVECs) | VEGF-A Expression after 1.5 hours (VEGF-A) | FLT-1 Expression after 1.5 hours (FLT-1) | Percent of blood perfusion ratio, ischemic/control limb (significance) (mouse ischemic hind limb [1]) | MVECs migration, direct activation by peptides (MVECs) | VEGF-A Expression after 6 hours (VEGF-A) | FLT-1 Expression after 6 hours (FLT-1) | EC tube formation under hypoxia (HUVECs (ECs); under hypoxia conditions, 18 hours) | KDR Expression after 6 hours (KDR) | Vascularization of mouse ear, histology sections ([3]; 10 μg, compared to control)
1 | LLADTTHHRPWT (Phage displayed peptide) [LT] | 78.275 percentages | − | 3.07 | 2.25 | 1.6 | 1.2 | did not induce tube formation | increased number of blood vessels | 18 | 3 | 3.5 fold | + | + |  |  |  |  |  |  | 
2 | QPWLEQAYYSTF (Phage displayed peptide) [QF] | 112.222 percentages | + | 2.83 | 2 | 1.6 | 1.2 | increased tube formation; also recorded: significant increase in tube formation | increased number of blood vessels | 21 | 0.9 | 2.4 fold | + | + | significant increase | 2.3 folds | − | − |  |  | 
3 | SAHGTSTGVPWP (Phage displayed peptide) | 84.478 percentages | + | 2.85 | 2.25 | 1.75 | 1.6 | did not induce tube formation | increased number of blood vessels | 15 | 1 | 2 fold | + | + |  | 2.1 folds |  |  | effective only in tube formation under hypoxia conditions |  | 
4 | TLPWLEESYWRP (Phage displayed peptide) [TR] | 86.006 percentages |  | 3.05 | 2.5 | 1.6 | 1.4 |  |  | 15 | 5.5 | 2 fold | + | + |  | 2.6 folds | − |  |  | + | large blood vessel formation and neovascularization
5 | VPWMEPAYQRFL (Phage displayed peptide) [VL] | 95.560 percentages |  | 2.75 | 2 | 1.6 | 1.4 | increased tube formation |  | 14 | 5.6 | 2 fold | + | + |  |  | + |  |  | + | 
6 | YPHIDSLGHWRR (Phage displayed peptide) [YR] | 104.349 percentages | + | 2.75 | 2.5 | 1.4 | 1 | increased tube formation | increased number of blood vessels | 11 | 7.6 | 2.4 fold | + | + | significant increase | 1.8 folds | − | − |  | − | 
